The results in this text go back to US12129223B2, “Lipids for use in lipid nanoparticle formulations” (Acuitas Therapeutics, Inc., priority 2021, dated 2024).

In general, pKa refers to the pH at which an ionisable group is half protonated.

Data set [1] in a line: Determination of pKa of formulated lipids (TNS fluorescence assay in lipid nanoparticles). As to conditions: lipid nanoparticles (compound/DSPC/cholesterol/PEG-lipid), lipid formulated in LNP (lipid/DSPC/cholesterol/PEG-lipid), pH at half-maximal intensity. The data set is classed as physicochemical. As to the method:
As described elsewhere, the pKa of formulated lipids is correlated with the effectiveness of LNPs for delivery of nucleic acids (see Jayaraman et al, Angewandte Chemie, International Edition (2012), 51(34), 8529-8533; Semple et al, Nature Biotechnology 28, 172-176 (2010)). In some embodiments, the preferred range of pKa is ˜5 to ˜7. The pKa of each lipid is determined in lipid nanoparticles using an assay based on fluorescence of 2-(p-toluidino)-6-napthalene sulfonic acid (TNS). Lipid nanoparticles comprising compound of structure (I)/DSPC/cholesterol/PEG-lipid (50/10/38.5/1.5 or 47.5:10:40.7:1.8 mol %) in PBS at a concentration of 0.4 mM total lipid are prepared using the in-line process as described in Example 1. TNS is prepared as a 100 μM stock solution in distilled water. Vesicles are diluted to 24 μM lipid in 2 mL of buffered solutions containing 10 mM HEPES, 10 mM MES, 10 mM ammonium acetate, and 130 mM NaCl, where the pH ranged from 2.5 to 11. An aliquot of the TNS solution is added to give a final concentration of 1 μM and following vortex mixing fluorescence intensity is measured at room temperature in a SLM Aminco Series 2 Luminescence Spectrophotometer using excitation and emission wavelengths of 321 nm and 445 nm. A sigmoidal best fit analysis is applied to the fluorescence data and the pKa is measured as the pH giving rise to half-maximal fluorescence intensity.

Data set [2] has as its system human IgG in mouse serum. Kind of data set: Immunoglobulin G (IgG) mRNA in vivo evaluation using lipid nanoparticle compositions. Also on record: species or system mice. As to conditions: LNP with IgG mRNA, tail vein injection, serum 24 hours after administration; for Serum IgG @ 0.3 mg/kg: 0.3 mg mRNA/kg; for Serum IgG @ 1.0 mg/kg: 1.0 mg mRNA/kg. How it is done: A lipid of structure (I), DSPC, cholesterol and PEG-lipid are solubilized in ethanol at a molar ratio of 50:10:38.5:1.5 or 47.5:10:40.7:1.8. Lipid nanoparticles (LNP) are prepared at a total lipid to mRNA weight ratio of approximately 10:1 to 40:1. Briefly, the mRNA is diluted to 0.2 mg/mL in 10 to 50 mM citrate buffer, pH 4 or 10 to 25 mM acetate buffer, pH 4. Syringe pumps are used to mix the ethanolic lipid solution with the mRNA aqueous solution at a ratio of about 1:5 to 1:3 (vol/vol) with total flow rates above 15 mL/min. The ethanol is then removed and the external buffer replaced with PBS by dialysis. Finally, the lipid nanoparticles are filtered through a 0.2 µm pore sterile filter.
Studies are performed in 6-8 week old CD-1/ICR mice (Envigo) according to guidelines established by an institutional animal care committee (ACC) and the Canadian Council on Animal Care (CCAC). Varying doses of mRNA-lipid nanoparticle are systemically administered by tail vein injection and animals euthanized at a specific time point (e.g., 24 hours) post-administration. The whole blood is collected, and the serum subsequentially separated by centrifuging the tubes of the whole blood at 2000×g for 10 minutes at 4° C. and stored at −80° C. until use for analysis.
For immunoglobulin G (IgG) ELISA (Life Diagnostics Human IgG ELISA kit), the serum samples are diluted at 100 to 15000 folds with 1×diluent solution. 100 μL of diluted serum is dispensed into anti-human IgG coated 96-well plate in duplicate alongside human IgG standards and incubated in a plate shaker at 150 rpm at 25° C. for 45 minutes. The wells are washed 5 times with 1× wash solution using a plate washer (400 μL/well). 100 μL of HRP conjugate is added into each well and incubated in a plate shaker at the same condition above. The wells are washed 5 times again with 1× wash solution using a plate washer (400 μL/well). 100 μL of TMB reagent is added into each well and incubated in a plate shaker at the same condition above. The reaction is stopped by adding 100 μL of Stop solution to each well. The absorbance is read at 450 nm (A450) with a microplate reader. The amount of human IgG in mouse serum is determined by plotting A450 values for the assay standard against human IgG concentration.
Representative compounds of the disclosure shown in Table 2 were formulated using the following molar ratio: 50% cationic lipid/10% distearoylphosphatidylcholine (DSPC)/38.5% Cholesterol/1.5% PEG lipid 2-[2-(ω-methoxy(polyethyleneglycol2000)ethoxy]-N,N-ditetradecyl acetamide) or 47.5% cationic lipid/10% DSPC/40.7% Cholesterol/1.8% PEG lipid. Relative activity was determined by measuring luciferase expression in the liver 4 hours following administration via tail vein injection as described in Example 1 or by measuring the amount of human IgG in mouse serum as described in example 2. The activity was compared at a dose of 1.0 or 0.5 or 0.3 mg mRNA/kg and expressed as ng luciferase/g liver measured 4 hours after administration, as described in Example 1 or as μg IgG/mL serum measured 24 hours after administration, as described in Example 2. Compound numbers in Table 2 refer to the compound numbers of Table 1.

Regarding `CCCCCCCCCCN(CCCCCCCCCC)C(=O)CCCCCCCN(CCCCCCCO)CCCCCCCC(=O)N(CCCCCCCCCC)CCCCCCCCCC` [Compound I-45, 8,8′-((7-hydroxyheptyl)azanediyl)bis(N,N-didecyloctanamide)], the pKa in data set [1] was found to be 5.96. In addition, in data set [2], the “Serum IgG @ 0.3 mg/kg” value was 3.03 ± 0.66 µg/mL and the “Serum IgG @ 1.0 mg/kg” value is 13.00 ± 2.05 µg/mL.

In data set [1], `CCCCCCCCCCN(CCCCCCCCCC)C(=O)CCCCCCCN(CCCCCCCC(=O)N(CCCCCCCCCC)CCCCCCCCCC)CCCn1ccnc1` [Compound I-48, 8,8′-((3-(1H-imidazol-1-yl)propyl)azanediyl)bis(N,N-didecyloctanamide)] returned a pKa of 6.63. In data set [2], the “Serum IgG @ 0.3 mg/kg” value is 1.02 ± 0.20 µg/mL and the “Serum IgG @ 1.0 mg/kg” value is 3.40 ± 0.87 µg/mL.

As to `CCCCCCCCCCN(CCCCCCCCCC)C(=O)CCCCCCCN(CCCCCCCC(=O)N(CCCCCCCCCC)CCCCCCCCCC)CCCNc1c(NC)c(=O)c1=O` [Compound I-50, 8,8′-((3-((2-(methylamino)-3,4-dioxocyclobut-1-en-1-yl)amino)propyl)azanediyl)bis(N,N-didecyloctanamide)], in data set [1], the pKa was determined as 6.73. In addition, in data set [2], the “Serum IgG @ 0.3 mg/kg” value amounted to 1.32 ± 0.28 µg/mL and the “Serum IgG @ 1.0 mg/kg” value worked out at 11.05 ± 2.19 µg/mL.

With `CCCCCCCCCCN(CCCCCCCCN(CCCCCO)CCCCCCCCN(CCCCCCCCCC)C(=O)CCCCCCCCC)C(=O)CCCCCCCCC` [Compound I-66, N,N′-(((5-hydroxypentyl)azanediyl)bis(octane-8,1-diyl))bis(N-decyldecanamide)], in data set [1], the pKa stood at 6.49. Besides, in data set [2], the “Serum IgG @ 0.3 mg/kg” value came out at 32.06 ± 5.07 µg/mL and the “Serum IgG @ 1.0 mg/kg” value is 253.37 ± 52.48 µg/mL.

In turn, `CCCCCCCCCCCCN(CCCCCCCCN(C)CCCCCCCCN(CCCCCCCCCCCC)C(=O)CCCCCCCCCCC)C(=O)CCCCCCCCCCC` [Compound I-67, N,N′-((methylazanediyl)bis(octane-8,1-diyl))bis(N-dodecyldodecanamide)] showed a pKa in data set [1] of 6.18. In addition, in data set [2], the “Serum IgG @ 0.3 mg/kg” value is 7.19 ± 1.41 µg/mL and the “Serum IgG @ 1.0 mg/kg” value came out at 62.94 ± 13.88 µg/mL.

`CCCCCCCCCCCCN(CCCCCCCCN(CCCCCO)CCCCCCCCN(CCCCCCCCCCCC)C(=O)CCCCCCCCCCC)C(=O)CCCCCCCCCCC` [Compound I-68, N,N′-(((5-hydroxypentyl)azanediyl)bis(octane-8,1-diyl))bis(N-dodecyldodecanamide)] showed a pKa in data set [1] of 6.41. In data set [2], the “Serum IgG @ 0.3 mg/kg” value was determined as 12.30 ± 2.41 µg/mL and the “Serum IgG @ 1.0 mg/kg” value was determined as 121.93 ± 34.85 µg/mL.

In the case of `CCCCCCCCCCN(CCCCCCCCN(C)CCCCCCCC(=O)N(CCCCCCCCCC)CCCCCCCCCC)C(=O)CCCCCCCCC` [Compound I-73, N-decyl-N-(8-((8-(didecylamino)-8 oxooctyl)(methyl)amino)octyl)decanamide], the pKa in data set [1] was 6.32. In data set [2], the “Serum IgG @ 0.3 mg/kg” value came out at 27.72 ± 6.23 µg/mL and the “Serum IgG @ 1.0 mg/kg” value came to 213.39 ± 18.85 µg/mL.

On to `CCCCCCCCCCN(CCCCCCCCN(CCCCCO)CCCCCCCC(=O)N(CCCCCCCCCC)CCCCCCCCCC)C(=O)CCCCCCCCC` [Compound I-74, N-decyl-N-(8-((8-(didecylamino)-8-oxooctyl)(5-hydroxypentyl)amino)octyl)decanamide], for which, in data set [1], the pKa came to 6.53. Further, in data set [2], the “Serum IgG @ 0.3 mg/kg” value stood at 50.16 ± 6.58 µg/mL and the “Serum IgG @ 1.0 mg/kg” value was 292.44 ± 40.55 µg/mL.

On to `CCCCCCCCCCN(CCCCCCCCCC)C(=O)CCCCCCN(C)CCCCCCC(=O)N(CCCCCCCCCC)CCCCCCCCCC` [Compound I-75, 7,7′-(methylazanediyl)bis(N,N-didecylheptanamide)], for which the pKa in data set [1] was 6.48. In addition, in data set [2], the “Serum IgG @ 0.3 mg/kg” value came to 84.87 ± 12.19 µg/mL and the “Serum IgG @ 1.0 mg/kg” value was found to be 343.06 ± 42.39 µg/mL.

For `CCCCCCCCCCN(CCCCCCCCCC)C(=O)CCCCCCCN(CCCCCCCC(=O)N(CCCCCCCCCC)CCCCCCCCCC)CCN(C)C` [Compound I-77], the pKa in data set [1] came to 6.71. The “Serum IgG @ 0.3 mg/kg” value in data set [2] is 17.45 ± 2.05 µg/mL.

Take `CCCCCCCCCCN(CCCCCCCCCC)C(=O)C(F)CCCCCCN(CCCCCO)CCCCCCC(F)C(=O)N(CCCCCCCCCC)CCCCCCCCCC` (stereo not shown) [Compound I-82, 8,8′-((5-hydroxypentyl)azanediyl)bis(N,N-didecyl-2-fluorooctanamide)]: in data set [1], the pKa turned out to be 6.47. In data set [2], the “Serum IgG @ 0.3 mg/kg” value amounted to 24.36 ± 4.39 µg/mL and the “Serum IgG @ 1.0 mg/kg” value is 239.26 ± 39.80 µg/mL.

The compound `CCCCCCCCCCN(CCCCCCCCCC)C(=O)C(F)CCCCCCN(C)CCCCCCC(F)C(=O)N(CCCCCCCCCC)CCCCCCCCCC` (stereo not shown) [Compound I-83, 8,8′-(methylazanediyl)bis(N,N-didecyl-2-fluorooctanamide)] came in with a pKa in data set [1] of 6.12. Also, in data set [2], the “Serum IgG @ 0.3 mg/kg” value was found to be 12.94 ± 2.03 µg/mL and the “Serum IgG @ 1.0 mg/kg” value amounted to 142.26 ± 26.31 µg/mL.

For `CCCCCCCCCCN(CCCCCCCCCC)C(=O)CCCN(CCCCCO)CCCC(=O)N(CCCCCCCCCC)CCCCCCCCCC` [Compound I-85, 4,4′-((5-hydroxypentyl)azanediyl)bis(N,N-didecylbutanamide)], the pKa in data set [1] turned out to be 6.81. In addition, the “Serum IgG @ 0.3 mg/kg” value in data set [2] was 10.74 ± 2.79 µg/mL.
